Values after ≈ are worked out from the molar mass of the structure shown. Read-outs that look alike come from different tables or passages of the source.
Tests used:
[1] = concentration in serum after oral administration to mice, bioassay; format: in vivo, mice (Jcl:ICR)
Description: The compound (3) was mixed with a 0.2% solution of carboxymethylcellulose to give a concentration of 4 mg/ml and a 1 ml portion of the resulting emulsion was orally administered to 4-week-old male Jcl:ICR mice. Blood was collected from armpit of the mice 30, 60, 120, 240 and 360 minutes after the administration of the test compound (n=2). The collected blood was allowed to stand at room temperature for about 2 hours and centrifuged for 20 minutes with a centrifuge (KUBOTA KS-5000P) to obtain serum. To the serum was added an equivalent volume of 50% CH3 CN-50 mM phosphate (1:1 by volume) buffer (pH 7.0). The resulting mixture served as a serum sample. The concentration of the test compound in the serum sample was measured by the following bioassay method.
One hundred […] of the serum sample was poured into a hole made on a test plate containing 40 ml of MRAPJ medium (6 g/l peptone, 3 g/l yeast extract, 1.5 g/l meat extract, 1 g/l glucose and 15 g/l agar, pH 6.5) supplemented with a solution of M. Iuteus ATCC9341 (1%) and incubated at 32° C. for 18 hours and MIC was measured based on the calibration curve. MOM, MDM and RKM were also tested for comparison. […] Thus a long-pending problem of "low concentration in serum" of 16-membered macrolide antibiotics has been solved. […] Thus this compound is considered as a macrolide derivative showing new pharmacokinetics.
Further, a pharmacokinetics test on the compound (12) of the present invention is carried out in the same manner as described above. Namely, 200 mg/kg of the compound (12) is orally administered to mice and the concentration of this compound in the serum is determined by a bioassay method with the use of M. luteus as a test strain. […] The disadvantage of 16-membered ring macrolide antibiotics, which has been pointed out for a long time, has been thus overcome.

test strains = test: antimicrobial activity in vitro, comparison in words; format: cell-based
Description: (§1) Antimicrobial activities of the compounds of the present invention were determined by measuring minimum inhibitory concentration (MIC). Minimum inhibitory concentration was determined by the agar plate dilution method in the following manner.
(§2) Test strains were subjected to seed culture using Sensitivity test broth (STB, Nissui Pharmaceutical) except that the strains belonging to the genus Streptococcus, Branhamella and Haemophilus were cultured on blood agar plate. A 5 μl portion of cell suspension of the test strains having about 10^6 CFU/ml was inoculated into Sensitivity disk agar (SDA, Nissui Pharmaceutical) supplemented with 5% horse blood and incubated at 37° C. for 20 hours. Then, MIC was measured. For comparison, MDM and leucomycin A7 (LM-A7) was also tested.

Gram-positive bacteria = test: antimicrobial activity in vitro (summary in words); format: cell-based; details: from Tables 2 and 3
Description: as §1, §2

S. aureus MS15009/pMS99 = test: MIC, agar plate dilution method; format: cell-based; details: Staphylococcus aureus, MS15009/PMS99, 20 h, read-out: Antimicrobial activity (MIC)
Description: as §1, §2

S. aureus M126 = test: MIC, agar plate dilution method; format: cell-based; details: Staphylococcus aureus; S. aureus M126; 37° C., 20 hours; read-out: Antimicrobial activity (MIC)
Description: as §1, §2

S. pneumoniae IP692 = test: MIC, agar plate dilution method; format: cell-based; details: Streptococcus pneumoniae; S. pneumoniae IP692; 37° C., 20 hours; read-out: Antimicrobial activity (MIC)
Description: as §1, §2

H. influenzae 9334 = test: MIC, agar plate dilution method; format: cell-based; details: Haemophilus influenzae; H. influenzae 9334; 37° C., 20 hours; read-out: Antimicrobial activity (MIC)
Description: as §1, §2

S. aureus MS15027 = test: MIC, agar plate dilution method; format: cell-based; details: Staphylococcus aureus, 37° C., 20 hours, read-out: Antimicrobial activity (MIC)
Description: as §1, §2

S. Pneumoniae Type 1 = test: MIC, agar plate dilution method; format: cell-based; details: Streptococcus pneumoniae; S. Pneumoniae Type 1; 37° C., 20 hours; read-out: Antimicrobial activity (MIC)
Description: as §1, §2

S. aureus MS15026 = test: MIC, agar plate dilution method; format: cell-based; details: Staphylococcus aureus, 37° C., 20 hours, read-out: Antimicrobial activity (MIC)
Description: as §1, §2

H. influenzae Type b = test: MIC, agar plate dilution method; format: cell-based; details: Haemophilus influenzae, read-out: Antimicrobial activity (MIC)
Description: as §1, §2

M. luteus ATCC9341 = test: MIC, agar plate dilution method; format: cell-based; details: Micrococcus luteus; M. luteus ATCC9341; 37° C., 20 hours; read-out: Antimicrobial activity (MIC)
Description: as §1, §2

E. faecalis W-73 = test: MIC, agar plate dilution method; format: cell-based; details: Enterococcus faecalis, W73; E. faecalis W-73; 37° C., 20 hours; read-out: Antimicrobial activity (MIC)
Description: as §1, §2

S. aureus MS15009/pMS98 = test: MIC, agar plate dilution method; format: cell-based; details: Staphylococcus aureus, MS15009/PMS98, 20 h, read-out: Antimicrobial activity (MIC)
Description: as §1, §2

B. catarrhalis W-0500 = test: MIC, agar plate dilution method; format: cell-based; details: Moraxella catarrhalis, W0500, 37° C., 20 hours, read-out: Antimicrobial activity (MIC)
Description: as §1, §2

K. pneumoniae PC1602 = test: MIC, agar plate dilution method; format: cell-based; details: Klebsiella pneumoniae, 37° C., 20 hours, read-out: Antimicrobial activity (MIC)
Description: as §1, §2

S. aureus M133 = test: MIC, agar plate dilution method; format: cell-based; details: Staphylococcus aureus, 37° C., 20 hours, read-out: Antimicrobial activity (MIC)
Description: as §1, §2

S. Pyogenes Cook = test: MIC, agar plate dilution method; format: cell-based; details: Streptococcus pyogenes, 37° C., 20 hours, read-out: Antimicrobial activity (MIC)
Description: as §1, §2

E. coli NIHJ JC-2 = test: MIC, agar plate dilution method; format: cell-based; details: Escherichia coli, NIHJJC2; E. coli NIHJ JC-2; 37° C., 20 hours; read-out: Antimicrobial activity (MIC)
Description: as §1, §2

S. epidermidis ATCC14990 = test: MIC, agar plate dilution method; format: cell-based; details: Staphylococcus epidermidis, 37° C., 20 hours, read-out: Antimicrobial activity (MIC)
Description: as §1, §2

B. catarrhalis W-0506 = test: MIC, agar plate dilution method; format: cell-based; details: Moraxella catarrhalis, W0506, 37° C., 20 hours, read-out: Antimicrobial activity (MIC)
Description: as §1, §2

S. aureus 209P JC-1 = test: MIC, agar plate dilution method; format: cell-based; details: Staphylococcus aureus; S. aureus 209P JC-1; 37° C., 20 hours; read-out: Antimicrobial activity (MIC)
Description: as §1, §2

Compound	antimicrobial activity on Gram-positive bacteria (Gram-positive bacteria)	MIC (S. aureus MS15009/pMS99) [µg/mL]	MIC (S. aureus M126) [µg/mL]	MIC (S. pneumoniae IP692) [µg/mL]	MIC (H. influenzae 9334) [µg/mL]	MIC (S. aureus MS15027) [µg/mL]	MIC (S. Pneumoniae Type 1) [µg/mL]	MIC (S. aureus MS15026) [µg/mL]	MIC (M. luteus ATCC9341) [µg/mL]	MIC (E. faecalis W-73) [µg/mL]	MIC (S. aureus MS15009/pMS98) [µg/mL]	MIC (B. catarrhalis W-0500) [µg/mL]	MIC (K. pneumoniae PC1602) [µg/mL]	MIC (S. aureus M133) [µg/mL]	MIC (S. Pyogenes Cook) [µg/mL]	MIC (E. coli NIHJ JC-2) [µg/mL]	MIC (S. epidermidis ATCC14990) [µg/mL]	MIC (B. catarrhalis W-0506) [µg/mL]	MIC (S. aureus 209P JC-1) [µg/mL]	further results
CCC(=O)O[C@@H]1CC(=O)O[C@H](C)C/C=C/C=C/[C@H](OC(C)=O)[C@H](C)C[C@H](CC=O)[C@H](O[C@@H]2O[C@H](C)[C@@H](O[C@H]3C[C@@](C)(OC)[C@@H](OCCC(C)C)[C@H](C)O3)[C@H](N(C)C)[C@H]2O)[C@H]1OC [(4)]	–	–	–	–	–	–	–	–	–	–	–	–	–	–	–	–	–	–	–	concentration in the serum (in words) [1]: sustains a high concentration in the serum; maximum concentration in the serum compared with compound (3) [1]: exceeds even that of the compound (3); concentration in the serum 6 hours after the administration, % of the maximum level ([1]; 6 hours): more than 80%; Tmax ([1]; mouse, serum, after the administration, read-out: time of maximum concentration in the serum): ~2 h; antimicrobial activity compared with compound (3) (test strains; data are not shown): almost comparable to that of the compound (3)
CCCO[C@H]1[C@H](C)O[C@@H](O[C@H]2[C@H](N(C)C)[C@@H](O)[C@H](O[C@H]3[C@@H](CC=O)C[C@@H](C)[C@@H](O)/C=C/C=C/C[C@@H](C)OC(=O)C[C@@H](O)[C@@H]3OC)O[C@@H]2C)C[C@@]1(C)OC [(9)]	strong antimicrobial activity	> 100	> 100	0.2 (≈ 0.264 µM)	6.25 (≈ 8.25 µM)	0.39 (≈ 0.515 µM)	0.2 (≈ 0.264 µM)	> 100	0.05 (≈ 0.066 µM)	0.78 (≈ 1.03 µM)	0.39 (≈ 0.515 µM)	1.56 (≈ 2.06 µM)	> 100	0.39 (≈ 0.515 µM)	0.1 (≈ 0.132 µM)	> 100	0.39 (≈ 0.515 µM)	3.13 (≈ 4.13 µM)	0.2 (≈ 0.264 µM)	MIC (H. influenzae Type b; 20 h): 12.5 µg/mL (≈ 16.5 µM)
CCCCO[C@H]1[C@H](C)O[C@@H](O[C@H]2[C@H](N(C)C)[C@@H](O)[C@H](O[C@H]3[C@@H](CC=O)C[C@@H](C)[C@@H](O)/C=C/C=C/C[C@@H](C)OC(=O)C[C@@H](O)[C@@H]3OC)O[C@@H]2C)C[C@@]1(C)OC [(10)]	strong antimicrobial activity	> 100	> 100	0.1 (≈ 0.13 µM)	3.13 (≈ 4.05 µM)	0.39 (≈ 0.505 µM)	0.2 (≈ 0.259 µM)	> 100	0.05 (≈ 0.0648 µM)	0.78 (≈ 1.01 µM)	0.39 (≈ 0.505 µM)	0.78 (≈ 1.01 µM)	> 100	0.39 (≈ 0.505 µM)	0.1 (≈ 0.13 µM)	> 100	0.39 (≈ 0.505 µM)	1.56 (≈ 2.02 µM)	0.1 (≈ 0.13 µM)	antimicrobial activity in vitro compared with MOM (test strains; data are not shown): clearly much superior to MOM; antimicrobial activity compared with LM-A7 (test strains; except on Haemophilus influenzae, Tables 2 and 3): comparable or superior; MIC (H. influenzae Type b; H. influenzae Type b, 37° C., 20 hours): 12.5 µg/mL (≈ 16.2 µM)

— patent publication US5407918A, “16-membered macrolide derivatives and process for producing the same” (Meiji Seika Kaisha, Ltd., priority 1992, dated 1995)
